Publication PMC10246557, “Kinetic and inhibition studies on human Jumonji-C (JmjC) domain-containing protein 5” (RSC Chemical Biology, 2023)
Read-outs that look alike come from different tables or passages of the source. Ends that are not written are not given here.

Tests used:
human JMJD5 [1] = biological target: T1, human JMJD5 (Homo sapiens, UniProt Q8N371); experiment: SPE-MS JMJD5 turnover and kinetic assay (RPS6_128–148 hydroxylation); type: biochemical; details: for JMJD5 (%): RPS6_128–148 hydroxylation with the compound as cosubstrate: absence of 2OG, JMJD5 0.15 μM, 2OG derivative 400 μM, Fe(II) 20 μM, RPS6_128–148 2.0 μM; for k app cat: calculated from vmax
T1 construct: made in house; host or cells: Escherichia coli BL21(DE3)

human JMJD5 [2] = biological target: T1, human JMJD5; experiment: SPE-MS JMJD5 inhibition assay; type: biochemical; details: JMJD5 0.15 μM, 2OG 2.0 μM, Fe(II) 2.0 μM, LAA 100 μM, RPS6_128–148 2.0 μM; read-out: IC50 JMJD5
Method: Solutions of the small-molecules (100% DMSO) were dry dispensed across 384 well polypropylene V-bottom assay microplates (Greiner) in an approximately three-fold and 11-point dilution series (100 μM inhibitor top concentration; the final DMSO assay concentration was kept constant at 0.5%v/v) using an ECHO 550 acoustic dispenser (Labcyte). […] Each reaction was performed in technical duplicates in adjacent wells of the assay plates; additionally, assays were performed in two independent duplicates on different days using different inhibitor solutions.
The Enzyme Mixture (25 μL per well), containing 0.3 μM His6-thioredoxin-tagged JMJD5 in buffer (50 mM MOPS, pH 7.5), was dispensed across the inhibitor-containing 384-well plates with a multidrop dispenser (ThermoFischer Scientific) at 20 °C under an ambient atmosphere. The plates were subsequently centrifuged (1000 rpm, 5 s) and incubated for 15 min at 20 °C. […] The plates were centrifuged (1000 rpm, 5 s) and, after incubating for 30 min, the enzyme reaction was stopped by the addition of 10%v/v aqueous formic acid (5 μL per well). The plates were then centrifuged (1000 rpm, 30 s) and analyzed by MS.
Z′-Factors were calculated according to the cited literature using Microsoft Excel.[61]

human KDM4E [3] = biological target: T2, human KDM4E (Homo sapiens, UniProt B2RXH2); experiment: KDM4E SPE-MS turnover and kinetic assay (H3 K9(me3) peptide demethylation); type: biochemical; details: for KDM4E (%): substrate demethylation with the compound as cosubstrate: absence of 2OG, KDM4E 0.15 μM, 2OG derivative 330 μM, Fe(II) 50 μM
T2 sequence (B2RXH2 1-506): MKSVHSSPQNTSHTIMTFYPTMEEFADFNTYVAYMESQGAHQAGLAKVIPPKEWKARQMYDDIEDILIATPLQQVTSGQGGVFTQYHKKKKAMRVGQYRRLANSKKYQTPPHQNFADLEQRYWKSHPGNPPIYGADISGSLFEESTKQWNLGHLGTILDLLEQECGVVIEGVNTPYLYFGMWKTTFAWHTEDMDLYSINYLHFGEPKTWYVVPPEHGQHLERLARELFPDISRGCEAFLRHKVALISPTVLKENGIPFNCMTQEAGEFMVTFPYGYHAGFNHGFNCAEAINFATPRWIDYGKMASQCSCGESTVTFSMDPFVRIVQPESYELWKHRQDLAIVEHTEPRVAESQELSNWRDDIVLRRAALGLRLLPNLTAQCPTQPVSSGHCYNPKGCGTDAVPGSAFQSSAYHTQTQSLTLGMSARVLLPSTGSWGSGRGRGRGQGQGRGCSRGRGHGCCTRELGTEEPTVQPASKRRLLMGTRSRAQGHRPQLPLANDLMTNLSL

human KDM4E [4] = biological target: T2, human KDM4E; experiment: KDM4E SPE-MS inhibition assay; type: biochemical; details: KDM4E 0.15 μM, peptide 10.0 μM, LAA 100 μM, FAS 10 μM, 2OG 10 μM
Method: KDM4E turnover and inhibition assays were performed as reported using recombinant human KDM4E and a histone 3 K9(me3) derivative (i.e. […](me3)STGGIA)[41] as substrate.[95] […]

human FIH [5] = details: FIH 0.15 μM, cited from earlier work; for FIH (%): substrate hydroxylation with the compound as cosubstrate: absence of 2OG, 2OG derivative 330 μM, Fe(II) 50 μM, HIF-1α788–822 5.0 μM
human FIH [6] = tested on: human FIH; design: method as in ref 10 (ESI); details: FIH 0.15 μM, HIF-1α788-822 5.0 μM, 2OG 10 μM; ref 10 (ESI); cited from earlier work
human AspH [7] = details: cited from earlier work; for AspH (%): substrate hydroxylation with the compound as cosubstrate: absence of 2OG, AspH 0.1 μM, 2OG derivative 330 μM, Fe(II) 50 μM, hFX-CP101–119 2.0 μM
human AspH [8] = tested on: human AspH; design: method as in ref 9 (ESI); details: AspH 0.05 μM, hFX-CP101-119 1.0 μM, 2OG 3.0 μM; ref 9 (ESI); cited from earlier work
KDM4C = tested on: KDM4C; design: method as in PMID 21859681; details: KDM4C 0.5 μM, ARTAQTARK(me3)STGGIA substrate; cited from earlier work
PHD2 = tested on: PHD2; design: method as in PMID 18952043; details: PHD2 1.0 nM, cited from earlier work
JMJD5 = details: cited from earlier work; for K m: 10.0 μM JMJD5, 50 mM HEPES pH 7.5, read-out: Km JMJD5 (MALDI-TOF MS assay)
[9] = 0.15 μM JMJD5, 50 mM MOPS pH 7.5, 20 °C, 100 μM LAA present
[10] = 0.15 μM JMJD5, 50 mM MOPS pH 7.5, 20 °C, LAA present
[11] = AspH315–758 0.1 μM, hFX–CP101–119 substrate

T1 sequence (Q8N371 whole entry): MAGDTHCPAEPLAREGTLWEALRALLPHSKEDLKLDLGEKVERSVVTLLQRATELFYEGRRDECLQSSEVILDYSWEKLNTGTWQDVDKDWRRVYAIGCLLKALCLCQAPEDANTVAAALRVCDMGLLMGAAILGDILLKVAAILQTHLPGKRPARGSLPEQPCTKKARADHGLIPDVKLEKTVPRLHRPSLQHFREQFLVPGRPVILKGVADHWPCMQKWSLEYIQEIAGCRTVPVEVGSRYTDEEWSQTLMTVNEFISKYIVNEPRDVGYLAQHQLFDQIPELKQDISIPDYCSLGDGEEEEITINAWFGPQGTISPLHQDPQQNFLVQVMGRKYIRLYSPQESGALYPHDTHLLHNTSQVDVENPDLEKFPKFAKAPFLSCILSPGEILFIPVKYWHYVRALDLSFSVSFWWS

In the case of `O=C(O)C(=O)c1ccc(C(=O)O)c(F)c1` [2OG derivative 29], the “JMJD5 (%): RPS6_128–148 hydroxylation with the compound as cosubstrate” value (“JMJD5 (%): RPS6_128–148 hydroxylation” below) (human JMJD5 [1]) is reported as under 1%, the IC50 (human JMJD5 [2]) is reported as over 50 µM and the “KDM4E (%): substrate demethylation with the compound as cosubstrate” value (shortened to “KDM4E (%): substrate demethylation”) (human KDM4E [3]; ARTAQTARK(me3)STGGIA 10.0 μM) is reported as under 1%. The IC50 (human KDM4E [4]) was over 50 µM, the “FIH (%): substrate hydroxylation with the compound as cosubstrate” value (from here on “FIH (%): substrate hydroxylation”) (human FIH [5]) was under 1% and the IC50 (human FIH [6]) was over 50 µM. For the same molecule, the “AspH (%): substrate hydroxylation with the compound as cosubstrate” value (shortened to “AspH (%): substrate hydroxylation”) (human AspH [7]) was ~ 8% and the IC50 (human AspH [8]) was over 50 µM.
With `O=C(O)C(=O)c1ccc(C(=O)O)cc1Br` [2OG derivative 30] the “JMJD5 (%): RPS6_128–148 hydroxylation” value (human JMJD5 [1]) was under 1%, the IC50 (human JMJD5 [2]) was over 50 µM and the “KDM4E (%): substrate demethylation” value (human KDM4E [3]; ARTAQTARK(me3)STGGIA 10.0 μM) was under 1%. For the same molecule, the IC50 (human KDM4E [4]) was over 50 µM, the “FIH (%): substrate hydroxylation” value (human FIH [5]) was under 1% and the IC50 (human FIH [6]) was over 50 µM. For the same molecule, the “AspH (%): substrate hydroxylation” value (human AspH [7]) was ~ 20% and the IC50 (human AspH [8]) was over 50 µM.
In the case of `O=C(O)C(=O)c1ccc(C(=O)O)c(Br)c1` [2OG derivative 31], the “JMJD5 (%): RPS6_128–148 hydroxylation” value (human JMJD5 [1]) is reported as under 1%, the IC50 (human JMJD5 [2]) is reported as over 50 µM and the “KDM4E (%): substrate demethylation” value (human KDM4E [3]; ARTAQTARK(me3)STGGIA 10.0 μM) is reported as under 1%. For the same molecule, the IC50 (human KDM4E [4]) was over 50 µM, the “FIH (%): substrate hydroxylation” value (human FIH [5]) was under 1% and the IC50 (human FIH [6]) was over 50 µM. For the same molecule, the “AspH (%): substrate hydroxylation” value (human AspH [7]) was ~ 8% and the IC50 (human AspH [8]) was over 50 µM.
For `Cc1cc(C(=O)O)ccc1C(=O)C(=O)O` [2OG derivative 32], the “JMJD5 (%): RPS6_128–148 hydroxylation” value (human JMJD5 [1]) was under 1%, the IC50 (human JMJD5 [2]) was over 50 µM and the “KDM4E (%): substrate demethylation” value (human KDM4E [3]; ARTAQTARK(me3)STGGIA 10.0 μM) was under 1%. The IC50 (human KDM4E [4]) was over 50 µM, the “FIH (%): substrate hydroxylation” value (human FIH [5]) was under 1% and the IC50 (human FIH [6]) was over 50 µM. For the same molecule, the “AspH (%): substrate hydroxylation” value (human AspH [7]) was ~ 5% and the IC50 (human AspH [8]) was over 50 µM.
For `O=C(O)CCC(=O)C(=O)O` [2OG, 2-oxoglutarate, reference compound], the v app max (human JMJD5 [1]; [9]) was 0.84 ± 0.03 nM/s, the K app m (human JMJD5 [1]; [10]) was 0.29 ± 0.04 µM and the k app cat (human JMJD5 [1]; [10]) was 0.0056 ± 0.0002 s⁻¹. For the same molecule, the “JMJD5 (%): RPS6_128–148 hydroxylation” value (human JMJD5 [1]) was ~ 40%, the “JMJD5-catalyzed RPS6_128–148 hydroxylation, time course” value (human JMJD5 [1]; after 50 min, 10 μM cosubstrate, 0.15 μM JMJD5, 10 μM Fe(II), 2.0 μM RPS6_128–148) was about 50% and the K app m (human KDM4E [3]; 0.15 μM KDM4E, ARTAQTARK(me3)STGGIA 10 μM) was 4.2 ± 1.1 µM. For the same molecule, the v app max (human KDM4E [3]; 0.15 μM KDM4E, ARTAQTARK(me3)STGGIA 10.0 μM, 50 mM MES pH 7.0, 20 °C) was 20.6 ± 1.3 nM/s, the “KDM4E (%): substrate demethylation” value (human KDM4E [3]; ARTAQTARK(me3)STGGIA 10.0 μM) was ~ 70% and the K m (human FIH [5]; HIF-1α788–822 substrate) was 0.8 ± 0.1 µM. For the same molecule, the k cat (human FIH [5]; HIF-1α788–822 substrate) was 0.04 ± 0.01 s⁻¹, the “FIH (%): substrate hydroxylation” value (human FIH [5]) was ~ 50% and the K m (human AspH [7]; [11]) was 0.60 ± 0.09 µM. The K m (KDM4C) was 2.6 ± 0.1 µM, the k cat (KDM4C) was 0.075 ± 0.001 s⁻¹ and the K m (PHD2; biotin-[…] substrate) was 0.35 ± 0.03 µM. The K m (JMJD5) was about 9.5 µM.
For `O=C(O)CNC(=O)c1ncc(-c2cccc(Cl)c2)cc1O` [vadadustat], the IC50 (JMJD5; read-out: IC50 JMJD5 (MALDI-TOF MS assay)) is given as about 54 µM.
For “RPS6_129–144: truncated version of the RPS6_128–148 substrate peptide used in MALDI-TOF MS assays (VPRRLGPKRASRIRKL-NH2; UniProt P62753 129-144, looked up, fragment)”, the K m (JMJD5) is listed as about 60 µM.
In the case of “ammonium iron(II) sulfate hexahydrate [Fe(II)]”, the v app max (human JMJD5 [1]; [9]) is reported as 0.75 ± 0.03 nM/s, the k app cat (human JMJD5 [1]; [10]) is reported as 0.005 ± 0.0002 s⁻¹ and the K app m (human JMJD5 [1]; 0.15 μM JMJD5, absence of LAA) is reported as 0.46 ± 0.11 µM. The v app max (human JMJD5 [1]; 0.15 μM JMJD5, absence of LAA) was 0.73 ± 0.05 nM/s, the k app cat (human JMJD5 [1]; 0.15 μM JMJD5, absence of LAA) was 0.0049 ± 0.0004 s⁻¹ and the K m (human AspH [7]; [11]) was 1.42 ± 0.16 µM. The k cat (human AspH [7]; [11]) was 0.19 ± 0.03 s⁻¹, the K m (PHD2; biotin-DLEMLAPYIPMDDDFQ substrate) was 0.89 ± 0.07 µM and the K m (JMJD5) was about 2.7 µM.
